# From PMC10099813, “Stafiba: A STAT5‐Selective Small‐Molecule Inhibitor” (Chembiochem, 2022)
# Columns and labels:
# STAT5b = target: T1, STAT5b (Homo sapiens, UniProt P51692); test: Competitive fluorescence polarization (FP) binding assay, STAT5b SH2 domain; conditions: for Ki / IC50: FP assay, 2 % DMSO (10 % DMSO for 10); for Ki: Ki calculated from IC50 (n=3) via published equation; for IC50: n=3; for selectivity for STAT5b over STAT1, STAT3, and STAT6: FP assays
# T1 sequence (P51692 1-787): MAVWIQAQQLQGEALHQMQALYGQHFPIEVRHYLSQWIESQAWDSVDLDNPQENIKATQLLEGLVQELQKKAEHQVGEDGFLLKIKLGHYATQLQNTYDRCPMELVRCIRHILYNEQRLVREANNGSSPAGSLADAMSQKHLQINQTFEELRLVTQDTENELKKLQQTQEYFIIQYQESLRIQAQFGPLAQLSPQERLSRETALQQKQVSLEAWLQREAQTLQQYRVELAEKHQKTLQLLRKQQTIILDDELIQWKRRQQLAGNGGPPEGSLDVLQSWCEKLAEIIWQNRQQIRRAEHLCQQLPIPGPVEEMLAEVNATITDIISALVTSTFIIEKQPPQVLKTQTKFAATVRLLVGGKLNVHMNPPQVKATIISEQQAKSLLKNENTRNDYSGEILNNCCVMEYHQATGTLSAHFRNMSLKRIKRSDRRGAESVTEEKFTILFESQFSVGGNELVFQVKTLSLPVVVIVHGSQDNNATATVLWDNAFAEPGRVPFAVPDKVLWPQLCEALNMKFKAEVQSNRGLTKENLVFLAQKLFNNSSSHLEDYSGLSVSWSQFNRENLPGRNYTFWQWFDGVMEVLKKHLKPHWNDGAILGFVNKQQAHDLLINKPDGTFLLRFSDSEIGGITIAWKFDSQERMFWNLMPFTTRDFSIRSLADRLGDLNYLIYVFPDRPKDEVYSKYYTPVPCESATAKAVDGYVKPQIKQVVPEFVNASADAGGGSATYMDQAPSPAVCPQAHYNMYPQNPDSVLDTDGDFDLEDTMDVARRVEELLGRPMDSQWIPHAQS
# Experimental: (§1) Fluorescence polarization assays: Competitive binding assays based on fluorescence polarization were carried out essentially as previously described.[[4a]] Unless stated otherwise, final concentrations of the buffer components were: 10 mM Tris (pH 8.0), 50 mM NaCl, 1 mM EDTA, 1 mM DTT, 0.1 % (v/v) Nonidet P‐40 substitute, and 2 % DMSO. Proteins were used at concentrations which reflect the Kd values of the interactions between the fluoropeptide and the protein preparations. Protein concentrations used for activity analysis of compound 5 were 91 nM for STAT1, 107 nM for STAT3, 28 nM for STAT4, 122 nM for STAT5a, 56 nM for STAT5b and 101 nM for STAT6. Protein concentrations used for activity analysis of AC‐4‐130 were 103 nM for STAT5a and 62 nM for STAT5b. […] Final concentration of all fluorescent‐labelled peptides was 10 nM. The following peptides were used in assays: 5‐carboxyfluorescein‐GpYDKPHVL for STAT1; 5‐carboxyfluorescein‐GpYLPQTV‐NH2 for STAT3; 5‐carboxyfluorescein‐GpYLPQNID for STAT4; 5‐carboxyfluorescein‐GpYLVLDKW for STAT5a/5b, and 5‐carboxyfluorescein‐GpYVPWQDLI for STAT6. Protein and test compounds were incubated for 1 h prior to addition of the fluorescein‐labeled peptide. Fluorescence polarization was measured after another 60 min using an Infinite F500 plate reader (Tecan). IC50 values were converted to Ki‐values using the published equation.[13]
# STAT6 = target: T2, STAT6 (Homo sapiens, UniProt P42226); test: Competitive fluorescence polarization (FP) binding assay, STAT6
# T2 sequence (P42226 1-847): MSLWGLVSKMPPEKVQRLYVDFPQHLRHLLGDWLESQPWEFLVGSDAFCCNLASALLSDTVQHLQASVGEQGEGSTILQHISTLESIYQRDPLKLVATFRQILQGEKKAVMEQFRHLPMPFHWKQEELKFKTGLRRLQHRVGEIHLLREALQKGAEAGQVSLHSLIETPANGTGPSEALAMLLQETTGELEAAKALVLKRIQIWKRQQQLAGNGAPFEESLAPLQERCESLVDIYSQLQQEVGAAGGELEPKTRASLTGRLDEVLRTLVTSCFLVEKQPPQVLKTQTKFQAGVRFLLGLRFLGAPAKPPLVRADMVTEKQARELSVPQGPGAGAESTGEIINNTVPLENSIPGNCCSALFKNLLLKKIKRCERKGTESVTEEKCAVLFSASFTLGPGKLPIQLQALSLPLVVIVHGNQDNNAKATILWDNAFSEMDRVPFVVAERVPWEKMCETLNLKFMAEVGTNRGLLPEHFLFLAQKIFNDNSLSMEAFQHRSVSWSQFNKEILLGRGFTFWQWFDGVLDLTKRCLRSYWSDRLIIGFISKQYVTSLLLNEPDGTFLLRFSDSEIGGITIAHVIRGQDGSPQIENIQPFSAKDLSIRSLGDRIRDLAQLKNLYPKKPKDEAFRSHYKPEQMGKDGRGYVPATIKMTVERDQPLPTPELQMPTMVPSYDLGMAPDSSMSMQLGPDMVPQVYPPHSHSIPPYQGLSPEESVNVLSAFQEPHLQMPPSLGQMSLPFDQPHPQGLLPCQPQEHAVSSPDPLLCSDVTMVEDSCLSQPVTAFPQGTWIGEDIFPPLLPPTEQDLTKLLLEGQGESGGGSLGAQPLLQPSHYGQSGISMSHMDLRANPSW
# Experimental: as §1
activity compared with AC-4-130 in FP assay against the SH2 domain of STAT5b (STAT5b; Figure 5C),IC50 (STAT6; 10 % DMSO),"Ki (STAT6; Ki calculated from IC50, 10 % DMSO)",SMILES,Ki (STAT5b),IC50 (STAT5b),"selectivity for STAT5b over STAT1, STAT3, and STAT6 (STAT5b)","inhibition at 100 µM (STAT6; 100 µM, 2 % DMSO)"
,,,O=C(CNc1ccc(C(=O)Nc2ccc(Oc3ccccc3)cc2)cc1)NCc1cc(OP(=O)(O)O)cc(OP(=O)(O)O)c1 [compound 5],1.5 ± 0.1 µM,3.1 ± 0.3 µM,more than tenfold,48 ± 1%
substantially more active than AC‐4‐130,61.3 ± 2.7 µM,30.1 ± 1.3 µM,O=C(CNc1ccc(C(=O)Nc2ccc(Oc3ccccc3)cc2)cc1)NCc1cc(C(F)(F)P(=O)(O)O)c(F)c(C(F)(F)P(=O)(O)O)c1 [compound 10],1.8 ± 0.1 µM,3.7 ± 0.2 µM,10–20 fold,
